In patent publication US20240041830A1, “CIRCULATING BIOMARKERS OF RESPONSE TO PD-1/PD-L1 BLOCKADE AND GSK-3 INHIBITION” (Brown University, priority 2022, published 2024):

Assays:
HT-29 = assay: microarray analysis; type: cell-based, human; details: 1 μM, 24 hours, vs untreated
Experimental: Microarrays. A total of 0.5×10^6 tumor cells (HCT-116, HT-29, KM12C) were plated in a 6-well plate and allowed to adhere overnight before 24-hour treatment, as indicated. Then, 1×10^6 immune cells (NK92, TALL-104) were plated and treated with elraglusib as indicated for twenty-four h. RNA was isolated from cell pellets in batches of six using a RNeasy Plus Mini Kit (Cat #74134, Qiagen, Hilden, Germany). Acceptable RNA concentration and quality were verified with Nanodrop and Bioanalyzer measurements. GeneChip™ Human Transcriptome Array 2.0 assays were conducted according to manufacturer instructions in two batches using randomized samples to limit batch effects (Cat #902162, Applied Biosystems, Waltham, MA, USA). Applied Biosystems Transcriptomic Analysis Console (TAC) software (RRID: SCR_016519) was used to calculate fold changes in gene expression relative to the untreated control cells. Values were considered statistically significant for p values<0.05.
The inventors then utilized microarray analysis to gain insights into gene expression changes in colorectal cancer cell lines post-GSK-3 inhibition with elraglusib. Several colorectal cancer cell lines (HCT-116, HT-29, KM12C) were treated with elraglusib at IC-50 concentrations or DMSO as vehicle control for twenty-four hours. Treated versus untreated samples were compared in triplicate using microarray analysis FIG. 10. Results were calculated using a fold change (FC) cutoff of >1.5, <−1.5, and a minimum p-value of<0.05. HCT-116 cells had 340 differentially expressed genes post-treatment. FIG. 2C.
TABLE 9 description. HT-29 CRC cell microarray analysis. HT-29 colorectal cancer cells were treated with 1 μM elraglusib for 24 hours and treated versus untreated control samples were compared in triplicate via microarray analysis (N=3). Table showing differentially expressed genes of interest with their corresponding fold changes, p values, descriptions, and functions. Genes highlighted in yellow are known p53 targets. Genes are ordered by fold change and were calculated using a fold change cutoff of >1.5, <−1.5, and a minimum p value of <0.05.

93T449 liposarcoma = assay: Western blot analysis; type: cell-based; details: IC50, 48 hours
Experimental: (§1) Western blot analysis. Cells were plated in a 6-well plate and incubated overnight before the spent media was replaced with drugged media. Drug treatment lasted for indicated durations. Protein was extracted using radioimmunoprecipitation (RIPA) assay buffer (Cat #R0278, Sigma-Aldrich, St. Louis, MO, USA) containing cOmplete™, Mini, EDTA-free Protease Inhibitor Cocktail (Cat #4693159001, Roche, Basel, Switzerland) from sub-confluent cells. Denaturing sample buffer was added, samples were boiled at 95° C. for ten minutes, and an equal amount of protein lysate was electrophoresed through NuPAGE™ 4 to 12%, bis-Tris, 1.5 mm, Mini Protein Gels (Invitrogen, Waltham, MA, USA) then transferred to PVDF membranes. The PVDF membrane was blocked with 5% non-fat milk (Sigma-Aldrich, St. Louis, MO, USA) in 1× TTBS. Primary antibodies were incubated with the transferred PVDF membrane in blocking buffer at 4° C. overnight. Secondary antibodies included Goat anti-Rabbit IgG (H+L) Secondary Antibody, HRP (Cat #31460, Invitrogen, Waltham, MA, USA), and Goat anti-Mouse IgG (H+L) Secondary Antibody, HRP (Cat #31430, Invitrogen, Waltham, MA, USA). The signal was detected using Pierce™ ECL Western Blotting Substrate (Cat #32106, Thermo Scientific, Waltham, MA, USA) and a Syngene Imaging System (RRID: SCR_015770).
(§2) Saos-2 osteosarcoma and 93T449 liposarcoma cell lines were pretreated at IC50 with elraglusib. The cells were harvested for Western blot analysis after 48 hours of treatment. Both cancer cell lines as well as TALL-104 T-cells and NK-92 NK cells were treated with 0.5 μM elraglusib for twenty-four hours and harvested for Luminex cytokine profiling.

Saos-2 osteosarcoma = assay: Western blot analysis; type: cell-based; details: IC50, 48 hours
Experimental: as §1, §2

Cn1cc(C2=C(c3coc4ccc(F)cc34)C(=O)NC2=O)c2cc3c(cc21)OCO3 [elraglusib]
AEN Fold Change (HT-29): 2.33
AGGF1 Fold Change (HT-29): −2.21
B2M Fold Change (HT-29): 2.41
BARD1 Fold Change (HT-29): −5.06
BCCIP Fold Change (HT-29): 1.61
BCL6 Fold Change (HT-29): −3.43
BRAF Fold Change (HT-29): −1.53
BTN3A2 Fold Change (HT-29): −1.58
CCAR1 Fold Change (HT-29): 1.56
CCNE1 Fold Change (HT-29): −2.6
CCNE2 Fold Change (HT-29): −5.83
CD14 Fold Change (HT-29): −2.63
CD276 Fold Change (HT-29): −1.56
CDC25C Fold Change (HT-29): −2.45
CDC45 Fold Change (HT-29): −1.75
CDCA3 Fold Change (HT-29): −1.7
CDK1 Fold Change (HT-29): −3.05
CDK2 Fold Change (HT-29): −2.23
CDKN1A Fold Change (HT-29): 1.72
CRLF3 Fold Change (HT-29): 1.5
DYNC1H1 Fold Change (HT-29): −1.7
E2F7 Fold Change (HT-29): −3.82
E2F8 Fold Change (HT-29): −3.1
EAPP Fold Change (HT-29): −1.58
EGR1 Fold Change (HT-29): 5.41
ERBB2IP Fold Change (HT-29): −1.7
FADD Fold Change (HT-29): −1.66
FZD7 Fold Change (HT-29): −1.71
HIP1 Fold Change (HT-29): −1.67
IL17RA Fold Change (HT-29): −1.68
IL17RB Fold Change (HT-29): −2.03
ITGB6 Fold Change (HT-29): −1.91
JAK1 Fold Change (HT-29): −1.58
MAP3K1 Fold Change (HT-29): −6.1
MCIDAS Fold Change (HT-29): −1.61
MDM4 Fold Change (HT-29): 1.68
MTA3 Fold Change (HT-29): −1.84
MYD88 Fold Change (HT-29): −1.68
NCR3LG1 Fold Change (HT-29): 1.78
NFKBIA Fold Change (HT-29): −5.25
NFKBIZ Fold Change (HT-29): −2.68
PDS5B Fold Change (HT-29): −1.58
PIM1 Fold Change (HT-29): −1.75
SFN Fold Change (HT-29): 1.54
SGK1 Fold Change (HT-29): −1.75
SMAD3 Fold Change (HT-29): 1.69
SOCS7 Fold Change (HT-29): 1.74
TGFBR3 Fold Change (HT-29): −4.82
TNFRSF12A Fold Change (HT-29): 1.9
TNFSF15 Fold Change (HT-29): −2.32
TNIK Fold Change (HT-29): −1.51
TRAIP Fold Change (HT-29): 1.83
TRIB1 Fold Change (HT-29): −9.14
UHRF1 Fold Change (HT-29): −1.75
cPARP (93T449 liposarcoma): increase
PD-L1 expression (93T449 liposarcoma; cell line not given): increase
cPARP (Saos-2 osteosarcoma): increase
PD-L1 expression (Saos-2 osteosarcoma; cell line not given): increase
